Results: patent US20090068290A1, “BIFEPRUNOX DOSES FOR TREATING SCHIZOPHRENIA” (priority 2006, published 2009)

How the values were obtained:
[1] = test system: adult subjects with schizophrenia; assay: PANSS total score, Clinical Study One (6-week, risperidone-referenced); assay type: in vivo, human; settings: for Change from Baseline in PANSS Total Score, Mean (S.D.) / Change from Baseline in PANSS Total Score, Median / PANSS Total Score, Trt Effect (bifeprunox minus placebo mean change from Baseline): ITT; for PANSS Total Score, Trt Effect (bifeprunox minus placebo mean change from Baseline): ANCOVA
Description: There were five treatment groups in this study. […] Study medication was administered once daily. After Baseline measurements were performed, the titration phase was begun. Bifeprunox treated subjects were titrated up to 5 mg, 10 mg or 20 mg according to a standardized titration schedule (Day 1: 0.125 mg, Day 2: 0.25 mg, Day 3: 0.5 mg, Day 4: 1.0 mg, Day 5: 2.0 mg, Day 6: 5.0 mg, Day 7: 10.0 mg, Day 8: 20 mg). When the assigned dose was reached, subjects were maintained at that dose for the remainder of the six-week treatment period.
Test Product. Dose and Mode of Administration: Bifeprunox tablets, total daily dose 0.125 mg to 20 mg administered orally using a once daily dosing regimen.
The change in the Positive and Negative Symptom Scale (PANSS) total score, from baseline to endpoint, was the primary outcome measure. Secondary efficacy measures included: PANSS positive, PANSS negative, PANSS general psychopathology (GPP) score, PANSS-derived Brief Psychiatric Rating Scale (BPRS) score, Clinical Global Impressions-Severity of Illness (CGI-S), CGI-Improvement (CGI-I) scores, and responder rates. Safety and tolerability evaluations included extrapyramidal symptoms (EPS), weight gain, lipid profile, and serum prolactin.

[2] = test system: adult subjects with schizophrenia; assay: PANSS negative symptom subscale score, Clinical Study Two; assay type: in vivo, human; settings: LOCF, ITT
Description: Rating scale assessments were performed weekly, except for week 5, to measure the change from baseline to endpoint of the PANSS total score. Other assessments included: PANSS positive symptom subscale score, PANSS negative symptom subscale score, PANSS general pschopathology subscale score, BPRS total score, BPRS psychosis score, the CGI-S score, the CGI-I score, responder rates based on the PANSS total score, and the Calgary Depression Scale for Schizophrenia (CDSS). […]
Subjects who completed this study had the option to continue in the long-term. […] Risperidone-treated subjects were titrated from 2 mg to 6 mg daily over a three-day period and were subsequently maintained at 6 mg/day for the remainder of the treatment period. […] Blood samples were also obtained at Screening/Baseline, Week 3, and Week 6 for clinical laboratory assessments.

[3] = Bifeprunox 10 mg, Endpoint LOCF
[4] = Bifeprunox 20 mg, Endpoint LOCF
[5] = Bifeprunox 30 mg, Week 6/Endpoint

Compound: O=c1[nH]c2cccc(N3CCN(Cc4cccc(-c5ccccc5)c4)CC3)c2o1 [Bifeprunox, 7-[4-([1,1′-biphenyl]-3-ylmethyl)-1-piperazinyl]-2(3H)-benzoxazolone]
- Change from Baseline in PANSS Total Score, Mean (S.D.) ([1]; Bifeprunox 5 mg, Endpoint LOCF): −9.7 (17.5)
- Change from Baseline in PANSS Total Score, Median ([1]; Bifeprunox 5 mg, Endpoint LOCF): −8
- PANSS Total Score, Trt Effect (bifeprunox minus placebo mean change from Baseline) ([1]; Bifeprunox 5 mg, Endpoint LOCF): −4.1
- Change from Baseline in PANSS Total Score, Mean (S.D.) ([1]; Bifeprunox 5 mg, Week 1, LOCF): −3.9 (13.1)
- Change from Baseline in PANSS Total Score, Median ([1]; Bifeprunox 5 mg, Week 1, LOCF): −4
- Change from Baseline in PANSS Total Score, Mean (S.D.) ([1]; Bifeprunox 5 mg, Week 2, LOCF): −6.7 (14.9)
- Change from Baseline in PANSS Total Score, Median ([1]; Bifeprunox 5 mg, Week 2, LOCF): −7
- Change from Baseline in PANSS Total Score, Mean (S.D.) ([1]; Bifeprunox 5 mg, Week 3, LOCF): −7.7 (16.1)
- Change from Baseline in PANSS Total Score, Median ([1]; Bifeprunox 5 mg, Week 3, LOCF): −7
- Change from Baseline in PANSS Total Score, Mean (S.D.) ([1]; Bifeprunox 5 mg, Week 4, LOCF): −8.7 (17.1)
- Change from Baseline in PANSS Total Score, Median ([1]; Bifeprunox 5 mg, Week 4, LOCF): −7
- Change from Baseline in PANSS Total Score, Mean (S.D.) [1, 3]: −5.0 (18.3)
- Change from Baseline in PANSS Total Score, Median [1, 3]: −4
- PANSS Total Score, Trt Effect (bifeprunox minus placebo mean change from Baseline) [1, 3]: 0.6
- Change from Baseline in PANSS Total Score, Mean (S.D.) ([1]; Bifeprunox 10 mg, Week 1, LOCF): −2.9 (11.7)
- Change from Baseline in PANSS Total Score, Median ([1]; Bifeprunox 10 mg, Week 1, LOCF): −1
- Change from Baseline in PANSS Total Score, Mean (S.D.) ([1]; Bifeprunox 10 mg, Week 2, LOCF): −4.2 (14.6)
- Change from Baseline in PANSS Total Score, Median ([1]; Bifeprunox 10 mg, Week 2, LOCF): −3
- Change from Baseline in PANSS Total Score, Mean (S.D.) ([1]; Bifeprunox 10 mg, Week 3, LOCF): −4.6 (17.4)
- Change from Baseline in PANSS Total Score, Median ([1]; Bifeprunox 10 mg, Week 3, LOCF): −3
- Change from Baseline in PANSS Total Score, Mean (S.D.) ([1]; Bifeprunox 10 mg, Week 4, LOCF): −4.1 (17.2)
- Change from Baseline in PANSS Total Score, Median ([1]; Bifeprunox 10 mg, Week 4, LOCF): −5
- Change from Baseline in PANSS Total Score, Mean (S.D.) [1, 4]: −11.3 (17.0)
- Change from Baseline in PANSS Total Score, Median [1, 4]: −11
- PANSS Total Score, Trt Effect (bifeprunox minus placebo mean change from Baseline) [1, 4]: −5.8
- Change from Baseline in PANSS Total Score, Mean (S.D.) ([1]; Bifeprunox 20 mg, Week 1, LOCF): −6.3 (11.5)
- Change from Baseline in PANSS Total Score, Median ([1]; Bifeprunox 20 mg, Week 1, LOCF): −5
- Change from Baseline in PANSS Total Score, Mean (S.D.) ([1]; Bifeprunox 20 mg, Week 2, LOCF): −9.0 (14.0)
- Change from Baseline in PANSS Total Score, Median ([1]; Bifeprunox 20 mg, Week 2, LOCF): −8
- Change from Baseline in PANSS Total Score, Mean (S.D.) ([1]; Bifeprunox 20 mg, Week 3, LOCF): −11.2 (14.5)
- Change from Baseline in PANSS Total Score, Median ([1]; Bifeprunox 20 mg, Week 3, LOCF): −11
- Change from Baseline in PANSS Total Score, Mean (S.D.) ([1]; Bifeprunox 20 mg, Week 4, LOCF): −11.2 (15.9)
- Change from Baseline in PANSS Total Score, Median ([1]; Bifeprunox 20 mg, Week 4, LOCF): −11
- superiority to placebo, primary efficacy endpoint (PANSS total score) ([1]; bifeprunox 5 mg, 6 weeks): did not show superiority to placebo
- improvement compared to placebo, any efficacy endpoint ([1]; bifeprunox 10 mg, 6 weeks): did not show statistically greater improvement for any efficacy endpoint
- efficacy compared to placebo (PANSS total and subscale scores) ([1]; bifeprunox 20 mg once daily, 6 weeks): effective in reducing both positive and negative symptoms of schizophrenia
- greater improvement from Baseline in PANSS total score compared with placebo ([1]; bifeprunox 20 mg, 6 weeks): 5.8 point
- reduction in the PANSS total score compared to placebo ([1]; bifeprunox 20 mg, 6 weeks (Example 4)): statistically significant (P<0.05) compared to placebo at Week 3 and Week 6/endpoint
- Change from Baseline in PANSS Negative Symptom Subscale Score, Mean (SD) ([2]; Bifeprunox 30 mg, Week 1): −1.6 (3.7)
- Change from Baseline in PANSS Negative Symptom Subscale Score, Median ([2]; Bifeprunox 30 mg, Week 1): −1
- Change from Baseline in PANSS Negative Symptom Subscale Score, Mean (SD) ([2]; Bifeprunox 30 mg, Week 2): 2.6 (4.4)
- Change from Baseline in PANSS Negative Symptom Subscale Score, Median ([2]; Bifeprunox 30 mg, Week 2): −2
- Change from Baseline in PANSS Negative Symptom Subscale Score, Mean (SD) ([2]; Bifeprunox 30 mg, Week 3): −3.0 (5.0)
- Change from Baseline in PANSS Negative Symptom Subscale Score, Median ([2]; Bifeprunox 30 mg, Week 3): −3
- Change from Baseline in PANSS Negative Symptom Subscale Score, Mean (SD) ([2]; Bifeprunox 30 mg, Week 4): −3.1 (5.3)
- Change from Baseline in PANSS Negative Symptom Subscale Score, Median ([2]; Bifeprunox 30 mg, Week 4): −2
- Change from Baseline in PANSS Negative Symptom Subscale Score, Mean (SD) [2, 5]: −3.1 (5.6)
- Change from Baseline in PANSS Negative Symptom Subscale Score, Median [2, 5]: −2
- PANSS Negative Symptom Subscale Score, Trt Effect (bifeprunox—placebo) ([2]; Bifeprunox 30 mg, Week 6/Endpoint, ANCOVA): −1.4
- Change from Baseline in PANSS Negative Symptom Subscale Score, Mean (SD) ([2]; Bifeprunox 40 mg, Week 1): −1.2 (3.3)
- Change from Baseline in PANSS Negative Symptom Subscale Score, Median ([2]; Bifeprunox 40 mg, Week 1): −1
- Change from Baseline in PANSS Negative Symptom Subscale Score, Mean (SD) ([2]; Bifeprunox 40 mg, Week 2): −1.9 (4.0)
